The assay has as its target T1, human Bradykinin B1 receptor (Homo sapiens, UniProt P46663).
T1 construct: host or cells: CHO-K1
T1 sequence (P46663 1-353): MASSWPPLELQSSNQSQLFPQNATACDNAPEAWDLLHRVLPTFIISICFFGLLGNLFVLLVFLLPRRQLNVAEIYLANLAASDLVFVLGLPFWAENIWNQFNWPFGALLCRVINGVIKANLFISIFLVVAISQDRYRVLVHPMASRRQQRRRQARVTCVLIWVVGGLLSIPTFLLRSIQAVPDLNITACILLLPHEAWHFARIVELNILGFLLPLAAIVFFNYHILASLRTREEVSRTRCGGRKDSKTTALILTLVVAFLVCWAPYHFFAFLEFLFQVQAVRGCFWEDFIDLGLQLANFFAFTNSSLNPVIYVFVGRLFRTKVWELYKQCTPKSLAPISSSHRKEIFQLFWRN
Description: Calcium flux Assay (FLIPR) with recombinant CHO-K1 cells expressing human Bradykinin B1 receptor, in presence (hB1 IC50) or absence (hB1 free IC50) of 0.1% BSA. It counts as cell-based. As to the method: The potency to inhibit the Bradykinin B1 receptor was determined for the compounds of this invention in a cell-based fluorescent calcium-mobilisation assay. The assay measures the ability of test compounds to inhibit Bradykinin B1 receptor agonist-induced increase of intracellular free Ca^2+ in the cell line expressing Bradykinin B1 receptor. […] The change of the intracellular Ca^2+ concentration is monitored with a fluorescent plate reader FLIPR TETRA® (Molecular Devices).
Calcium flux Assays (FLIPR) with cells expressing human Bradykinin B1 receptor (hB1)
CHO-K1 cell line expressing human Bradykinin B1 receptor was purchased from Euroscreen (Gosselies, Belgium, with reference name hB1-D1). The cells were grown in Nutrient Mixture Ham's F12 (Sigma) containing 10% Foetal bovine serum (Sigma) and 400 μg/mL G418 (Sigma), 5 μg/mL puromycim (Sigma). […]
Cells were seeded in a volume of 50 μL in medium without antibiotics and incubated overnight in a humidified atmosphere with 5% CO2 at 37° C. […] The calcium indicator loaded cells were incubated at 37° C. for 2 hrs. Extracellular dye was then removed and each well was filled with 45 μL of assay buffer. Cell plates were kept in dark until used. Compound examples were assayed at 8 concentrations in triplicate. Serial 10-fold dilutions in 100% DMSO were made at a 100-times higher concentration than the final concentration, and then diluted 1:10 in assay buffer. 5 μL of each diluted compound was added to the well of cell plates (yielding final concentration with 1% DMSO), and incubated for 30 min at 28° C. before the addition of Bradykinin B1 receptor agonist on the FLIPR instrument.
A peptide antagonist Lys-(Des-Arg-Leu)-Bradykinin (Bachem, Brackley) at 20 µM was used to determine the full inhibition as control.
Peak fluorescence was used to determine the response to agonist obtained at each concentration of compound examples by the following equation:
% Response=100*(RFU(compound)−RFU(control))/(RFU(DMSO)−RFU(control)) • RFU means relative fluorescence units. • Control means full inhibition by the peptide antagonist Lys-(Des-Arg-Leu)-Bradykinin at 20 µM.
The response values were plotted against the logarithm of the compound concentrations. The compound examples were tested in triplicates per plate and mean values were plotted in Excel XLfit to determine IC50 values, percentage of maximal inhibition and the Hill slopes.

The mark [1] stands for this setting: in presence of 0.1% BSA, read-out: hB1 IC50.
Setting [2] is: in absence of 0.1% BSA, read-out: hB1 free IC50.

Like-named read-outs stand apart in the source and are kept apart here.

As a reminder, the IC50 is the point on the concentration scale where inhibition reaches its midpoint.

Regarding `CCOc1ccc(-c2ccc(NC(=O)C3(c4cccc(Cl)c4)CCC3)cc2-c2nnn[nH]2)cn1` [Example 68, 1-(3-chlorophenyl)-N-[4-(6-ethoxypyridin-3-yl)-3-(1H-tetrazol-5-yl)phenyl] cyclobutane-carboxamide], the concentration for half-maximal inhibition (IC50) under setting [1] came out at 1410 nM. `COc1ccc(-c2ccc(NC(=O)C3(c4ccc(F)cc4Cl)CC3)cc2-c2nnn[nH]2)cc1OC` [Example 28, 1-(2-chloro-4-fluorophenyl)-N-[3′,4′-dimethoxy-2-(1H-tetrazol-5-yl)biphenyl-4-yl]cyclopropane carboxamide]: the IC50 under setting [1] came out at 138 nM. Consider `O=C(Nc1cc(-c2nnn[nH]2)c(-c2ccc(C(F)(F)F)nc2)cc1O)C1(c2cc(F)cc(Cl)c2)CC1` [Example 223, 1-(3-chloro-5-fluorophenyl)-N-{2-hydroxy-5-(1H-tetrazol-5-yl)-4-[6-(trifluoromethyl)pyridin-3-yl]phenyl} cyclopropane-carboxamide], for which the IC50 under setting [1] was 84 nM. As to `O=C(Nc1ccc(-c2cc(F)cc(C(F)(F)F)c2)c(-c2nnn[nH]2)c1)C1(c2cccc(Cl)c2)CC1` [Example 130, 1-(3-chlorophenyl)-N-[3′-fluoro-2-(1H-tetrazol-5-yl)-5′-(trifluoromethyl)biphenyl-4-yl]cyclopropane carboxamide], the IC50 under setting [2] amounted to 362 nM. For `COc1ccc(-c2ccc(NC(=O)C3(c4c(F)cccc4F)CC3)cc2-c2nnn[nH]2)cc1OC` [Example 29, 1-(2,6-difluorophenyl)-N-[3′,4′-dimethoxy-2-(1H-tetrazol-5-yl)biphenyl-4-yl]cyclopropane carboxamide], the IC50 under setting [1] was 167 nM. Same read-out and setting: the value for `O=C(Nc1cc(-c2nnn[nH]2)c(-c2ccc(C(F)(F)F)nc2)cc1O)C1(c2cccc(Cl)c2F)CC1` [Example 225, 1-(3-chloro-2-fluorophenyl)-N-{2-hydroxy-5-(1H-tetrazol-5-yl)-4-[6-(trifluoromethyl)pyridin-3-yl]phenyl} cyclopropane-carboxamide] was 88.9 nM.

`CCc1cnn(-c2ccc(NC(=O)C3(c4ccc(C(F)(F)F)cc4F)CC3)cc2-c2nnn[nH]2)c1` [Example 376, N-[4-(4-Ethyl-1H-pyrazol-1-yl)-3-(1H-tetrazol-5-yl)phenyl]-1-[2-fluoro-4-(trifluoromethyl)phenyl]cyclopro-panecarboxamide]: the half-inhibitory concentration (IC50) under setting [2] was 12 nM. Still for that read-out and setting: the figure for `O=C(Nc1ccc(-n2ccc(C(F)(F)F)n2)c(-c2nnn[nH]2)c1)C1(c2ccc(OC(F)(F)F)cc2F)CC1` [Example 363, 1-[2-Fluoro-4-(trifluoromethoxy)phenyl]-N-{3-(1H-tetrazol-5-yl)-4-[3-(trifluoromethyl)-1H-pyrazol-1-yl]phenyl}cyclopro-panecarboxa-mide] is 37.1 nM; for `CCc1ccn(-c2ccc(NC(=O)C3(c4ccc(C)cc4F)CC3)cc2-c2nnn[nH]2)n1` [Example 371, N-[4-(3-ethyl-1H-pyrazol-1-yl)-3-(1H-tetrazol-5-yl)phenyl]-1-(2-fluoro-4-methylphenyl)cyclo-propanecar-boxamide] it is 282 nM. As for `CCOc1ncc(-c2ccc(NC(=O)C3(c4ccc(C(F)(F)F)cc4)CC3)cc2-c2nnn[nH]2)cc1C` [Example 161, N-[4-(6-ethoxy-5-methylpyridin-3-yl)-3-(1H-tetrazol-5-yl)phenyl]-1-[4-(trifluoromethyl)phenyl] cyclopropane-carboxamide], the 50% inhibitory concentration (IC50) under setting [1] is 24.9 nM. Same read-out and setting: the value for `COc1ccc(-c2ccc(NC(=O)C3(c4cccc(F)c4C)CC3)cc2-c2nnn[nH]2)cc1OC` [Example 257, N-[3′,4′-dimethoxy-2-(1H-tetrazol-5-yl)biphenyl-4-yl]-1-(3-fluoro-2-methylphenyl)cy-clopropanecar-boxamide] was 916 nM. Same read-out and setting: the value for `COc1ccc(-c2ccc(NC(=O)C3(c4cccc(OC(F)F)c4)CC3)cc2-c2nnn[nH]2)cc1OC` [Example 22, 1-[3-(difluoromethoxy)phenyl]-N-[3′,4′-dimethoxy-2-(1H-tetrazol-5-yl)biphenyl-4-yl]cyclopropane carboxamide] was 212 nM. With `CCC(F)(F)c1ccc(-c2ccc(NC(=O)C3(c4cccc(Cl)c4)CC3)cc2-c2nnn[nH]2)cn1` [Example 283, 1-(3-chlorophenyl)-N-{4-[6-(1,1-difluoropropyl)py-ridin-3-yl]-3-(1H-tetrazol-5-yl)phenyl}cyclopro-panecarboxa-mide], the 50% inhibitory concentration (IC50) under setting [2] stood at 8.19 nM. Still for that read-out and setting: the figure for `O=C(Nc1ccc(-c2ccc(C(F)F)nc2)c(-c2nnn[nH]2)c1)C1(c2ccc(OC(F)(F)F)cc2F)CC1` [Example 276, N-{4-[6-(difluoromethyl)pyridin-3-yl]-3-(1H-tetrazol-5-yl)phenyl}-1-[2-fluoro-4-(trifluoromethoxy)phenyl]cyclo-propanecarboxa-mide] is 1.83 nM. Consider `COc1ccc(C2(C(=O)Nc3ccc(-c4ccc(OC)c(OC)c4)c(-c4nnn[nH]4)c3)CC2)cc1` [Example 47, N-[3′,4′-dimethoxy-2-(1H-tetrazol-5-yl)biphenyl-4-yl]-1-(4-methoxyphenyl) cyclopropane-carboxamide], for which, under setting [1], the half-maximal inhibitory concentration (IC50) turned out to be 180 nM.

Consider `CCOc1ccc(-c2ccc(NC(=O)C3(C)CC3)cc2-c2nnn[nH]2)cn1` [Example 88, N-[4-(6-ethoxypyridin-3-yl)-3-(1H-tetrazol-5-yl)phenyl]-1-methyl-cyclopropane-carboxamide], for which the concentration for half-maximal inhibition (IC50) under setting [1] is 111 nM.

On to `O=C(Nc1ccc(-c2ccc(C(F)F)nc2)c(-c2nnn[nH]2)c1)C1(c2ccc(Cl)c(F)c2)CC1` [Example 272, 1-(4-chloro-3-fluorophenyl)-N-{4-[6-(difluoromethyl)pyridin-3-yl]-3-(1H-tetrazol-5-yl)phenyl}cyclopro-panecarboxa-mide], for which the half-inhibitory concentration (IC50) under setting [2] was 4.72 nM.

Regarding `O=C(Nc1cc(-c2nnn[nH]2)c(-c2ccc(C(F)(F)F)nc2)cc1O)C1(c2cccc(Cl)c2)CC1` [Example 262, 1-(3-chlorophenyl)-N-{2-hydroxy-5-(1H-tetrazol-5-yl)-4-[6-(trifluoromethyl)pyridin-3-yl]phenyl}cyclopro-panecarboxa-mide], under setting [1], the half-inhibitory concentration (IC50) came to 72.3 nM. Same read-out and setting: the value for `COc1ccc(-c2ccc(NC(=O)C3(c4ccc(Cl)cc4)CC3)cc2-c2nnn[nH]2)cc1OC` [Example 43, 1-(4-chlorophenyl)-N-[3′,4′-dimethoxy-2-(1H-tetrazol-5-yl)biphenyl-4-yl]cyclopropane carboxamide] was 14 nM; that for `O=C(Nc1ccc(-c2ccc(OC(F)(F)F)cc2)c(-c2nnn[nH]2)c1)C1(c2cccc(Cl)c2)CC1` [Example 317, 1-(3-chlorophenyl)-N-[2-(1H-tetrazol-5-yl)-4′-(trifluoromethoxy)biphenyl-4-yl]cyclopropane-carboxamide] was 52.9 nM. With `CCc1cnn(-c2ccc(NC(=O)C3(c4cccc(Cl)c4)CC3)cc2-c2nnn[nH]2)c1` [Example 378, 1-(3-Chlorophenyl)-N-[4-(4-ethyl-1H-pyrazol-1-yl)-3-(1H-tetrazol-5-yl)phenyl]cyclopro-panecarboxa-mide], the 50% inhibitory concentration (IC50) under setting [2] was determined as 343 nM.

Take `Cc1ccc(C2(C(=O)Nc3ccc(-n4ccc(CC(F)(F)F)n4)c(-c4nnn[nH]4)c3)CC2)c(F)c1` [Example 388, 1-(2-fluoro-4-methylphenyl)-N-{3-(1H-tetrazol-5-yl)-4-[3-(2,2,2-trifluoroethyl)-1H-pyrazol-1-yl]phenyl}cyclopro-panecarboxa-mide]: under setting [2], the IC50 is 33.4 nM.

Take `O=C(Nc1ccc(-n2cc(Cl)cn2)c(-c2nnn[nH]2)c1)C1(c2ccc(OC(F)(F)F)cc2F)CC1` [Example 395, N-[4-(4-chloro-1H-pyrazol-1-yl)-3-(1H-tetrazol-5-yl)phenyl]-1-[2-fluoro-4-(trifluoromethoxy)phenyl]cyclo-propanecarboxa-mide]: the half-maximal inhibitory concentration (IC50) under setting [2] was found to be 16.2 nM. Still for that read-out and setting: the figure for `CCC1CCN(c2ccc(NC(=O)C3(c4ccc(C(F)(F)F)cc4F)CC3)cc2-c2nnn[nH]2)C1=O` (stereo not drawn) [Example 408, N-[4-(3-ethyl-2-oxopyrrolidin-1-yl)-3-(1H-tetrazol-5-yl)phenyl]-1-[2-fluoro-4-(trifluoromethyl)phenyl]cyclopro-panecarboxamide] is 131 nM.
